According to ChEMBL document CHEMBL5647693, “Molecular basis underlying resistance to Mps1/TTK inhibitors” (Oncogene, 2016):

Tests used:
Assay in all cases: cells
Assay type in all cases: functional, cell-based
[1] = test system: HCT-116; settings: Homo sapiens, HCT-116, 120 h
[2] = test system: HeLa; settings: Homo sapiens, 120 h
[3] = test system: HCT-116; settings: Homo sapiens, HCT-116, 120 h; remark: listed apart in the source
[4] = test system: DLD-1; settings: Homo sapiens, DLD-1, 120 h
[5] = test system: HeLa; settings: Homo sapiens, 120 h; remark: listed apart in the source
[6] = test system: DLD-1; settings: Homo sapiens, DLD-1, 120 h; remark: listed apart in the source
[7] = test system: HCT-116; settings: Homo sapiens, HCT-116, 120 h; remark: listed apart in the source
[8] = test system: HeLa; settings: Homo sapiens, 120 h; remark: listed apart in the source
[9] = test system: HeLa; settings: Homo sapiens, 120 h; remark: listed apart in the source

What does the source list for `COc1cc(OC2CCN(C)CC2)ccc1Nc1ncc2c(n1)n(C1CCCC1)c(=O)n2C`?
IC50 [1]: 560 nM; IC50 [2]: 1340 nM; IC50 [3]: > 5000 nM; IC50 [4]: 719 nM; IC50 [5]: 3850 nM; IC50 [6]: > 5000 nM; IC50 [7]: 3060 nM; IC50 [8]: > 5000 nM; IC50 [9]: 2740 nM
